Measurements: US7259004B1, “Endophytic streptomycetes from higher plants with biological activity” (Montana State University, priority 2002, dated 2007)

Tests used:
[1] = system: Candida parasilosis ATCC 22019; experiment: disk diffusion assay; type: cell-based, Candida parapsilosis; for diameter of the zone of inhibition, Candida parasilosis ATCC 22019: key: R = resistant
[2] = system: Candida parasdosis ATCC 90018; experiment: disk diffusion assay; type: cell-based, Candida parapsilosis; for diameter of the zone of inhibition, Candida parasdosis ATCC 90018: key: R = resistant
[3] = system: Candida albicans ATCC 90028; experiment: disk diffusion assay; type: cell-based; for diameter of the zone of inhibition, Candida albicans ATCC 90028: key: R = resistant
[4] = system: Saccharomyces cerevisiae ATCC 9763; experiment: disk diffusion assay; type: cell-based; conditions: A3-5-1 10 micrograms; Flucytosine 10 micrograms; RPMI-glucose agar 35° C.
[5] = system: Cryptococcus neoformans ATCC 32045; experiment: disk diffusion assay; type: cell-based; conditions: A3-5-1 10 micrograms; Flucytosine 10 micrograms; RPMI-glucose agar 35° C.
Candida krusei ATCC 6258 = experiment: disk diffusion assay; type: cell-based
[6] = system: Candida tropicalis ATCC 750; experiment: disk diffusion assay; type: cell-based; for diameter of the zone of inhibition, Candida tropicalis ATCC 750: key: R = resistant
[7] = system: Candida albicans ATCC 24433; experiment: disk diffusion assay; type: cell-based; for diameter of the zone of inhibition, Candida albicans ATCC 24433: key: R = resistant
[8] = system: Candida glabrata ATCC 2001; experiment: disk diffusion assay; type: cell-based; for diameter of the zone of inhibition, Candida glabrata ATCC 2001: key: R = resistant
[9] = system: RNA synthesis in Bacillus subtilis; experiment: macromolecular synthesis whole cell assay, [3H]uridine incorporation; type: cell-based; conditions: 1×MIC
[10] = system: Cell wall synthesis in Bacillus subtilis; experiment: macromolecular synthesis whole cell assay, [3H]N-acetyl glucosamine incorporation; type: cell-based; conditions: 1×MIC
B. subtilis 1A757 = experiment: microbe, parasite or virus in culture; type: cell-based, Bacillus subtilis
[11] = system: M. tuberculosis H37Rv (ATCC 25618) (drug sensitive); experiment: IC50 in Mycobacteria 7H11 agar; type: cell-based, Mycobacterium tuberculosis; conditions: Mycobacterium tuberculosis; 7H11 agar with 10% OADC
[12] = system: Enterococcus faecium ATCC 49624; experiment: disk diffusion assay; type: cell-based; conditions: 10 micrograms per disk; ciprofloxacin 5, vancomycin 30 micrograms per disk; 35° C.
[13] = system: Enterococcus faecium ATCC 51559; experiment: disk diffusion assay; type: cell-based; conditions: 10 micrograms per disk; ciprofloxacin 5, vancomycin 30 micrograms per disk; 35° C.
[14] = system: Human Primary Mammary Epithelial HMEC; experiment: CellTiter 96 Aqueous Non-Radioactive Cell Proliferation Assay; type: cell-based; conditions: 48 hours; Table 7
Method: (§1) The munumbicins were then tested against three human cancer cell lines (ATCC) and human primary mammary epithelial cells (HMECs) (Clonetics; Biowhittaker, Walkersville, Md.) using a CellTiter 96® Aqueous Non-Radioactive Cell Proliferation Assay kit from Promega (Madison, Wis.). The cell lines were A-549 (lung epithelial carcinoma, ATCC CCL-185), ME-180 (cervical epithelial epidermoid carcinoma, ATCC HTB-33), and BT-20 (breast epithelial cancer, ATCC HTB-19), and were grown in the media recommended by ATCC. The primary mammary cells were cultured as recommended by the manufacturer in mammary epithelial cell growth media (MEGM®). […] After seeding, the cells were incubated for five hours at 37° C. before addition of the munumbicins. Two-fold serial dilutions of the munumbicins were made in the culture medium, and a volume equal to that of the seeded cells for each dilution was added to three wells of cells. Each plate also contained some wells with cells plus medium only and some wells with medium only. […] The A-549 and ME-180 cells were incubated for 48 hours. […] The plates were incubated at 37° C. for one to four hours, and the OD490 was determined. The OD reading of all wells was corrected for background by subtracting the reading of wells containing medium only. […] Kakadumycin A was tested against three human cancer cell lines (ATCC) and human primary mammary epithelial cells using the procedure described above for the munumbicins. Kadadumycin B was tested against one human cancer cell line.

[15] = system: Human Breast Cancer Epithelial BT-20; experiment: as above; type: cell-based; conditions: 96-144 hours; Table 7
Method: as §1

[16] = system: Human Lung Cancer Epithelial A549; experiment: as above; type: cell-based; conditions: 48 hours; Table 7
Method: as §1

[17] = system: Human Cervical Cancer Epithelial ME180; experiment: as above; type: cell-based; conditions: 48 hours; Table 7
Method: as §1

Aspergillus fumigatus = experiment: microbroth dilution MIC
Phytophthora cinnamomi = experiment: microbroth dilution MIC, plant associated microorganisms; type: cell-based; conditions: PD broth, 48 hours at 23° C.
Method: (§2) Incubation was for 48 hours at 23° C. A plant pathogenic strain of Pseudomonas syringae was also tested using the same PD broth medium and with concentrations of colony forming units as given above. The organisms were obtained from the Montana State University plant pathogen culture collection administered by Dr. […] The relative activities against plant pathogenic fungi ranged from a few tenths of a microgram up to thirty micrograms. Table 2 provides the results of tests of inhibitory activity of the munumbicins against various plant-pathogenic fungi and one pathogenic bacterium. The data are reported as MIC values in micrograms/ml.

Rhizoctonia solani = experiment: as above; type: cell-based; conditions: PD broth, 48 hours at 23° C.
Method: as §2

Sclerotinia sclerotiorum = experiment: as above; type: cell-based; conditions: PD broth, 48 hours at 23° C.
Method: as §2

Geotrichum candidum = experiment: as above; type: cell-based; conditions: PD broth, 48 hours at 23° C.
Method: as §2

Pseudomonas syringae = experiment: as above; type: cell-based; conditions: PD broth
Method: as §2

Pythium ultimum = experiment: as above; type: cell-based; conditions: PD broth, 48 hours at 23° C.
Method: as §2

brine shrimp = brine shrimp assays; conditions: preliminary assays
[18] = system: Plasmodium falciparum strain CSC-1 (Honduras); experiment: antimalarial assay, 3H-phenylalanine radiobioassay in human red blood cells; conditions: human red blood cells, 3H-phenylalanine; standard deviation of the mean, three experiments
Candida albicans = experiment: microbroth dilution MIC
[19] = system: Shigella dysenteriae ATCC 11835; experiment: disk diffusion assay; type: cell-based; conditions: 10 micrograms per disk; 35° C.
[20] = system: Streptococcus pneumoniae ATCC 49619; experiment: disk diffusion assay; type: cell-based; conditions: 10 micrograms per disk; ciprofloxacin 5, vancomycin 30 micrograms per disk; MHA with 5% dsb. and 5% CO2
[21] = system: Escherichia coli ATCC 25922; experiment: disk diffusion assay; type: cell-based; conditions: 10 micrograms per disk; penicillin G 10 units per disk; 35° C. Note: key: R = resistant.
[22] = system: Enterococcus faecalis ATCC 51299; experiment: disk diffusion assay; type: cell-based; conditions: 10 micrograms per disk; ciprofloxacin 5, vancomycin 30 micrograms per disk; 35° C.
Cryptococcus neoformans = experiment: microbroth dilution MIC
[23] = system: Acinetobacter sp. ATCC 49137; experiment: disk diffusion assay; type: cell-based; conditions: 10 micrograms per disk; ciprofloxacin 5, vancomycin 30 micrograms per disk; grown at 30° C.
[24] = system: Staphyloccus aureus MH II Eli Lilly Co.; experiment: microbroth dilution MIC; conditions: drug sensitive strain
[25] = system: Neisseria gonnorhea ATCC 49226; experiment: disk diffusion assay; type: cell-based; conditions: 10 micrograms per disk; ciprofloxacin 5, vancomycin 30 micrograms per disk; GC agar with 1% growth supplement with 5% CO2
[26] = system: S. maltophilia ATCC 13637; experiment: disk diffusion assay; type: cell-based, Stenotrophomas maltophilia; conditions: 10 micrograms per disk; 35° C.
S. epidermis ATCC 12228 = experiment: disk diffusion assay; type: cell-based, Staphylococcus epidermidis; conditions: 10 micrograms per disk; 35° C.
Vibrio fischeri PIC 345 = experiment: disk diffusion assay; type: cell-based; conditions: 10 micrograms per disk; ciprofloxacin 5, vancomycin 30 micrograms per disk; 35° C.
[27] = system: Enterococcus faecalis ATCC 29212; experiment: disk diffusion assay; type: cell-based; conditions: 10 micrograms per disk; ciprofloxacin 5, vancomycin 30 micrograms per disk; 35° C.
[28] = system: Staphylococcus aureus ATCC 29213; experiment: disk diffusion assay; type: cell-based; conditions: 10 micrograms per disk; ciprofloxacin 5, vancomycin 30 micrograms per disk; 35° C.
[29] = system: Pseudomonas aeruginosa ATCC 27853; experiment: disk diffusion assay; type: cell-based; conditions: 10 micrograms per disk; ciprofloxacin 5, vancomycin 30 micrograms per disk; 35° C. Note: key: R = resistant.
[30] = A3-5-1 10 micrograms, Flucytosine 10 micrograms, RPMI-glucose agar 35° C.

## Nc1[nH]c(=O)ncc1F [Flucytosine, reference compound]
[1]; [30]
  Disk Diffusion, Candida parapsilosis 22019: 46 mm
[2]; [30]
  Disk Diffusion, Candida parapsilosis 90018: 57 mm
[3]; [30]
  Disk Diffusion, Candida albicans 90028: 37 mm
[4]
  Disk Diffusion, Saccharomyces cerevisiae 9763: 50 mm
[5]
  Disk Diffusion, Cryptococcus neoformans 32045: 42 mm
Candida krusei ATCC 6258; [30]
  Disk Diffusion, Candida krusei 6258: 7 mm
[6]; [30]
  Disk Diffusion, Candida tropicalis 750: 47 mm
[7]; [30]
  Disk Diffusion, Candida albicans 24433: 20 mm
[8]; [30]
  Disk Diffusion, Candida glabrata 2001: 53 mm

## CO[C@H]1/C=C/O[C@@]2(C)Oc3c(C)c(O)c4c(O)c(c(/C=N/N5CCN(C)CC5)c(O)c4c3C2=O)NC(=O)/C(C)=C\C=C\[C@H](C)[C@H](O)[C@@H](C)[C@@H](O)[C@@H](C)[C@H](OC(C)=O)[C@@H]1C [Rifampicin, reference compound]
[9]; 5 min
  % [3H]uridine (RNA synthesis) incorporation of that of the untreated culture: 13%
[9]; 10 min
  % [3H]uridine (RNA synthesis) incorporation of that of the untreated culture: 15%
[10]; 5 min
  % [3H]N-acetyl glucosamine (Cell wall synthesis) incorporation of that of the untreated culture: 47%
[10]; 10 min
  % [3H]N-acetyl glucosamine (Cell wall synthesis) incorporation of that of the untreated culture: 48%
B. subtilis 1A757
  1×MIC against Bacillus subtilis: 0.25 micrograms/ml
[11]
  IC50: < 1 µg/mL

## Penicillin
[12]
  diameter of the zone of inhibition, Enterococcus faecium ATCC 49624: 21 mm
[13]
  diameter of the zone of inhibition, Enterococcus faecium ATCC 51559: 0 mm

## munumbicin D
[1]; 10 micrograms per disk, 35° C.
  diameter of the zone of inhibition, Candida parasilosis ATCC 22019: R
[14]
  IC50 Human Primary Mammary Epithelial HMEC: 0.425 micrograms/ml
[15]
  IC50 Human Breast Cancer Epithelial BT-20: 0.07 micrograms/ml
[16]
  IC50 Human Lung Cancer Epithelial A549: 2.6 micrograms/ml
[17]
  IC50 Human Cervical Cancer Epithelial ME180: 0.2 micrograms/ml
Aspergillus fumigatus
  MIC Aspergillus fumigatus: 20 micrograms/ml
Phytophthora cinnamomi
  MIC Phytophthora cinnamomi: 15.6 micrograms/ml
Rhizoctonia solani
  MIC Rhizoctonia solani: 15.6 micrograms/ml
Sclerotinia sclerotiorum
  MIC Sclerotinia sclerotiorum: 2.0 micrograms/ml
Geotrichum candidum
  MIC Geotrichum candidum: 31.2 micrograms/ml
Pseudomonas syringae
  MIC Pseudomonas syringae: 0.2 micrograms/ml
Pythium ultimum
  MIC Pythium ultimum: 0.4 micrograms/ml
[2]; 10 micrograms per disk, 35° C.
  diameter of the zone of inhibition, Candida parasdosis ATCC 90018: R
Brine shrimp
  LC50 brine shrimp: 1.7 micrograms/ml
[3]; 10 micrograms per disk, 35° C.
  diameter of the zone of inhibition, Candida albicans ATCC 90028: R
[18]
  IC50 Plasmodium falciparum: 0.0045 ± 0.0007 µg/mL
Candida albicans
  MIC Candida albicans: >10 micrograms/ml
Candida krusei ATCC 6258; 10 micrograms per disk, 35° C.
  diameter of the zone of inhibition, Candida krusei ATCC 6258: R
[19]
  diameter of the zone of inhibition, Shigella dysenteriae ATCC 11835: R
[20]
  diameter of the zone of inhibition, Streptococcus pneumoniae ATCC 49619: 16 mm
[21]
  diameter of the zone of inhibition, Escherichia coli ATCC 25922: R
Human red blood cells
  concentration causing detectable lysis of human red blood cells: > 80 micrograms/ml
[22]
  diameter of the zone of inhibition, Enterococcus faecalis ATCC 51299: 16 mm
Cryptococcus neoformans
  MIC Cryptococcus neoformans: 10 micrograms/ml
[23]
  diameter of the zone of inhibition, Acinetobacter sp. ATCC 49137: R
[24]
  MIC Staphyloccus aureus MH II Eli Lilly Co.: 0.4 micrograms/ml
[25]
  diameter of the zone of inhibition, Neisseria gonnorhea ATCC 49226: 9 mm
[26]
  diameter of the zone of inhibition, S. maltophilia ATCC 13637: R
S. epidermis ATCC 12228
  diameter of the zone of inhibition, S. epidermis ATCC 12228: 14 mm
[6]; 10 micrograms per disk, 35° C.
  diameter of the zone of inhibition, Candida tropicalis ATCC 750: R
Vibrio fischeri PIC 345
  diameter of the zone of inhibition, Vibrio fischeri PIC 345: 12 mm
[27]
  diameter of the zone of inhibition, Enterococcus faecalis ATCC 29212: 16 mm
[28]
  diameter of the zone of inhibition, Staphylococcus aureus ATCC 29213: 13 mm
[7]; 10 micrograms per disk, 35° C.
  diameter of the zone of inhibition, Candida albicans ATCC 24433: R
[8]; 10 micrograms per disk, 35° C.
  diameter of the zone of inhibition, Candida glabrata ATCC 2001: R
[29]
  diameter of the zone of inhibition, Pseudomonas aeruginosa ATCC 27853: R
